Where a name gives a salt, the structure may show the parent alone.
Assays:
Conditions in all cases: exposure time: 72 h
E13 [1] = patient-derived glioblastoma stem cells of classical subtype; experiment: surviving fraction (nuclei count normalised to DMSO); higher = more cells surviving (less toxic)
E21 [2] = patient-derived glioblastoma stem cells of mesenchymal subtype; experiment: as above
E28 [3] = patient-derived glioblastoma stem cells of classical subtype; experiment: as above
E31 [4] = patient-derived glioblastoma stem cells of proneural subtype; experiment: as above
E34 [5] = patient-derived glioblastoma stem cells of proneural subtype; experiment: as above
E57 [6] = patient-derived glioblastoma stem cells of mesenchymal subtype; experiment: as above
FT3469 [7] = normal neural stem cell line; experiment: as above
E13 [8] = experiment: phenotypic distance (Euclidean, principal components) from DMSO controls (arbitrary units); higher = stronger morphological change
E21 [9] = experiment: as above
E28 [10] = experiment: as above
E31 [11] = experiment: as above
E34 [12] = experiment: as above
E57 [13] = experiment: as above
FT3469 [14] = experiment: as above
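Wherever phenotypic distance (Euclidean, principal components) from DMSO controls is given: cell Painting imaging in 384-well plates, CellProfiler features reduced to at least 20 principal components, Euclidean distance versus same-plate DMSO vehicle wells (0.1% v/v), median over six images per well.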
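Wherever surviving fraction (nuclei count normalised to DMSO) is given: nuclei counted by high-content imaging of Hoechst-stained cells in laminin-coated 384-well plates, relative to 0.1% DMSO vehicle wells, with staurosporine as cell-death control.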

CCCCCCC[N+](CC)(CC)CCCCc1ccc(Cl)cc1 [Clofilium tosylate]
Conditions	phenotypic distance	surviving fraction
E13 [1], 4.1 nM	–	1.17
E13 [1], 12.3 nM	–	1.06
E13 [1], 37 nM	–	0.817
E13 [1], 111.1 nM	–	0.945
E13 [1], 333.3 nM	–	0.896
E13 [1], 1000 nM	–	0.937
E13 [1], 3000 nM	–	0.609
E13 [8], 4.1 nM	0.802	–
E13 [8], 12.3 nM	1.25	–
E13 [8], 37 nM	0.557	–
E13 [8], 111.1 nM	0.985	–
E13 [8], 333.3 nM	0.488	–
E13 [8], 1000 nM	0.667	–
E13 [8], 3000 nM	1.83	–
E21 [2], 4.1 nM	–	1
E21 [2], 12.3 nM	–	1.11
E21 [2], 37 nM	–	1.1
E21 [2], 111.1 nM	–	1
E21 [2], 333.3 nM	–	0.976
E21 [2], 1000 nM	–	1.12
E21 [2], 3000 nM	–	0.609
E21 [9], 4.1 nM	0.676	–
E21 [9], 12.3 nM	1	–
E21 [9], 37 nM	1.04	–
E21 [9], 111.1 nM	1.16	–
E21 [9], 333.3 nM	1.29	–
E21 [9], 1000 nM	1.68	–
E21 [9], 3000 nM	3.13	–
E28 [3], 4.1 nM	–	0.984
E28 [3], 12.3 nM	–	1.28
E28 [3], 37 nM	–	0.96
E28 [3], 111.1 nM	–	1.18
E28 [3], 333.3 nM	–	1.16
E28 [3], 1000 nM	–	1.05
E28 [3], 3000 nM	–	0.485
E28 [10], 4.1 nM	0.664	–
E28 [10], 12.3 nM	1.16	–
E28 [10], 37 nM	0.464	–
E28 [10], 111.1 nM	0.925	–
E28 [10], 333.3 nM	0.998	–
E28 [10], 1000 nM	1.17	–
E28 [10], 3000 nM	1.84	–
E31 [4], 4.1 nM	–	0.763
E31 [4], 12.3 nM	–	1.03
E31 [4], 37 nM	–	1.04
E31 [4], 111.1 nM	–	0.913
E31 [4], 333.3 nM	–	1.01
E31 [4], 1000 nM	–	0.95
E31 [4], 3000 nM	–	0.452
E31 [11], 4.1 nM	0.758	–
E31 [11], 12.3 nM	0.742	–
E31 [11], 37 nM	0.443	–
E31 [11], 111.1 nM	0.89	–
E31 [11], 333.3 nM	0.62	–
E31 [11], 1000 nM	1.43	–
E31 [11], 3000 nM	2.44	–
E34 [5], 4.1 nM	–	1.09
E34 [5], 12.3 nM	–	1.07
E34 [5], 37 nM	–	0.961
E34 [5], 111.1 nM	–	0.954
E34 [5], 333.3 nM	–	0.998
E34 [5], 1000 nM	–	1.02
E34 [5], 3000 nM	–	0.813
E34 [12], 4.1 nM	1	–
E34 [12], 12.3 nM	1.05	–
E34 [12], 37 nM	0.94	–
E34 [12], 111.1 nM	1.17	–
E34 [12], 333.3 nM	1.13	–
E34 [12], 1000 nM	1.33	–
E34 [12], 3000 nM	1.86	–
E57 [6], 4.1 nM	–	1.1
E57 [6], 12.3 nM	–	0.992
E57 [6], 37 nM	–	1.14
E57 [6], 111.1 nM	–	0.977
E57 [6], 333.3 nM	–	1.02
E57 [6], 1000 nM	–	0.959
E57 [6], 3000 nM	–	0.866
E57 [13], 4.1 nM	0.657	–
E57 [13], 12.3 nM	0.645	–
E57 [13], 37 nM	0.931	–
E57 [13], 111.1 nM	0.93	–
E57 [13], 333.3 nM	0.68	–
E57 [13], 1000 nM	0.764	–
E57 [13], 3000 nM	1.73	–
FT3469 [7], 4.1 nM	–	1.12
FT3469 [7], 12.3 nM	–	1.26
FT3469 [7], 37 nM	–	0.944
FT3469 [7], 111.1 nM	–	1.13
FT3469 [7], 333.3 nM	–	1.13
FT3469 [7], 1000 nM	–	1.07
FT3469 [7], 3000 nM	–	0.838
FT3469 [14], 4.1 nM	0.575	–
FT3469 [14], 12.3 nM	1.1	–
FT3469 [14], 37 nM	0.53	–
FT3469 [14], 111.1 nM	1.01	–
FT3469 [14], 333.3 nM	0.917	–
FT3469 [14], 1000 nM	1.08	–
FT3469 [14], 3000 nM	1.3	–

From the supplement of paper PMC13207355
